Laboratory results taken from patent US7608604B2, “Antiparasitic agents” (Pfizer Limited, priority 2007, dated 2009).

System: Haemonchus contortus L3
Experiment: Haemonchus contortus L3 (HcL3) in vitro test
Type: cell-based
Settings: minimum effective dose
Procedure: The Haemonchus contortus L3 (HcL3) test is used to measure the biological activities of the compounds claimed. The assay involves in vitro testing against H. contortus conducted according to the following general procedure.
HcL3 larvae were collected from infected sheep and, after cleaning, stored in water at 12° C. for up to one month. Viable infective larvae were exsheathed using 10% hypochlorite in Glucose Tyrodes balanced salt solution containing antibiotics and resuspended in basal medium (20 g/l bacto-tryptone, 5 g/l yeast extract, 57 g/l glucose, 0.8 g/l di-Potassium hydrogen orthophosphate, 0.8 g/l potassium dihydrogen orthophosphate and […] Hepes with antibiotics). 95 μl worm suspension was added to each well of a 96 well plate.
Test compounds were dissolved in dimethylsulfoxide to give a working stock solution of 20 mg/ml. The stock concentration was diluted 1:10 in Basal media to give 2.0 mg/ml (10% DMSO). 5 μl of the stock compound solution was added to the worm suspension to give a final concentration of 100 μg/ml. Plates were sealed with pressure sensitive film and incubated at 37° C. Observations were made 2 hrs, 24 hrs, 48 hrs, 72 hrs and 4 days post-treatment using an inverted microscope. Activity was recorded if a significant proportion of the worms were dead or adversely affected by the compound when compared to the control well containing 1% DMSO. Compounds were initially tested at 100 μg/ml, wherefrom relevant dose responses (100, 30, 10, 3, 1, 0.3, 0.1 μg/ml) were conducted in duplicate experiments to generate n=2. Data was recorded as minimum effective dose.

[1] = table of Examples 13a-42, 13a/b, 27a/b, 29a/b, 33a/b tested as mixtures of regioisomers

| Molecule | H.c. (L3) MED [1] | other results |
| --- | --- | --- |
| CC(C#N)(COc1ccccc1C(F)(F)F)NC(=O)c1ccc(S(F)(F)(F)(F)F)cc1 (centres unmarked) [Example 21, N-{1-Cyano-1-methyl-2-[2-(trifluoromethyl)phenoxy]ethyl}-4-(pentafluorothio)benzamide] | 30 µg/mL | – |
| CC(C#N)(COc1ccc(C#N)cc1)NC(=O)c1ccc(S(F)(F)(F)(F)F)cc1 (centres unmarked) [Example 22, N-[1-Cyano-2-(4-cyanophenoxy)-1-methylethyl]-4-(pentafluorothio)benzamide] | 10 µg/mL | – |
| CC(C#N)(COc1cc(F)cc(Cl)c1)NC(=O)c1ccc(S(F)(F)(F)(F)F)cc1 (centres unmarked) [Example 23, N-[2-(3-Chloro-5-fluorophenoxy)-1-cyano-1-methylethyl]-4-(pentafluorothio)benzamide] | 30 µg/mL | – |
| CC(C#N)(COc1cc(Cl)ccc1C#N)NC(=O)c1ccc(S(F)(F)(F)(F)F)cc1 (centres unmarked) [Example 24, N-[2-(5-Chloro-2-cyanophenoxy)-1-cyano-1-methylethyl]4-(pentafluorothio)benzamide] | 3 µg/mL | – |
| CC(C#N)(COc1ccccc1Cl)NC(=O)c1ccc(S(F)(F)(F)(F)F)cc1 (centres unmarked) [Example 25, N-[2-(2-Chlorophenoxy)-1-cyano-1-methylethyl]-4-(pentafluorothio)benzamide] | 10 µg/mL | – |
| CC(C#N)(COc1cccc(Cl)c1C#N)NC(=O)c1ccc(S(F)(F)(F)(F)F)cc1 (centres unmarked) [Example 26, N-[2-(3-Chloro-2-cyanophenoxy)-1-cyano-1-methylethyl]-4-(pentafluorothio)benzamide] | 10 µg/mL | – |
| CC(C#N)(COc1ccc(F)cc1C#N)NC(=O)c1ccc(S(F)(F)(F)(F)F)cc1 (centres unmarked) [Example 27a, N-[1-Cyano-2-(2-cyano-4-fluorophenoxy)-1-methylethyl]-4-(pentafluorothio)benzamide] | 3 µg/mL | – |
| CC(C#N)(COc1ccc(F)c(C#N)c1)NC(=O)c1ccc(S(F)(F)(F)(F)F)cc1 (centres unmarked) [Example 27b, N-[1-Cyano-2-(3-cyano-4-fluorophenoxy)-1-methylethyl]-4-(pentafluorothio)benzamide] | 3 µg/mL | – |
| CC(C#N)(COc1ccc(Cl)cc1F)NC(=O)c1ccc(S(F)(F)(F)(F)F)cc1 (centres unmarked) [Example 28, N-[2-(4-Chloro-2-fluorophenoxy)-1-cyano-1-methylethyl]-4-(pentafluorothio)benzamide] | 3 µg/mL | – |
| CC(C#N)(COc1ccc(C#N)cc1F)NC(=O)c1ccc(S(F)(F)(F)(F)F)cc1 (centres unmarked) [Example 29a, N-[1-Cyano-2-(4-cyano-2-fluorophenoxy)-1-methylethyl]-4-(pentafluorothio)benzamide] | 10 µg/mL | – |
| CC(C#N)(COc1cc(C#N)ccc1F)NC(=O)c1ccc(S(F)(F)(F)(F)F)cc1 (centres unmarked) [Example 29b, N-[1-Cyano-2-(5-cyano-2-fluorophenoxy)-1-methylethyl]-4-(pentafluorothio)benzamide] | 10 µg/mL | – |
| CC(C#N)(COc1ccc(C(F)(F)F)cc1F)NC(=O)c1ccc(S(F)(F)(F)(F)F)cc1 (centres unmarked) [Example 30, N-{1-Cyano-2-[2-fluoro-4-(trifluoromethyl)phenoxy]-1-methylethyl}-4-(pentafluorothio)benzamide] | 10 µg/mL | – |
| CC(C#N)(COc1cccc(Cl)c1)NC(=O)c1ccc(S(F)(F)(F)(F)F)cc1 (centres unmarked) [Example 31] | 10 µg/mL | – |
| CC(C#N)(COc1cc(C#N)ccc1Br)NC(=O)c1ccc(S(F)(F)(F)(F)F)cc1 (centres unmarked) [Example 32, N-[2-(2-Bromo-5-cyanophenoxy)-1-cyano-1-methylethyl]-4-(pentafluorothio)benzamide] | 3 µg/mL | – |
| CC(C#N)(COc1ccc(F)cc1Br)NC(=O)c1ccc(S(F)(F)(F)(F)F)cc1 (centres unmarked) [Example 33a, N-[2-(2-Bromo-4-fluorophenoxy)-1-cyano-1-methylethyl]-4-(pentafluorothio)benzamide] | 10 µg/mL | – |
| CC(C#N)(COc1ccc(F)c(Br)c1)NC(=O)c1ccc(S(F)(F)(F)(F)F)cc1 (centres unmarked) [Example 33b, N-[2-(3-Bromo-4-fluorophenoxy)-1-cyano-1-methylethyl]-4-(pentafluorothio)benzamide] | 10 µg/mL | – |
| CC(C#N)(COc1ccc(Br)cc1F)NC(=O)c1ccc(S(F)(F)(F)(F)F)cc1 (centres unmarked) [Example 34, N-[2-(4-Bromo-2-fluorophenoxy)-1-cyano-1-methylethyl]-4-(pentafluorothio)benzamide] | 10 µg/mL | – |
| CC(C#N)(COc1cc(Br)cc(C#N)c1)NC(=O)c1ccc(S(F)(F)(F)(F)F)cc1 (centres unmarked) [Example 35, N-[2-(3-Bromo-5-cyanophenoxy)-1-cyano-1-methylethyl]-4-(pentafluorothio)benzamide] | 3 µg/mL | – |

| Molecule | H.c. (L3) MED [1] | other results |
| --- | --- | --- |
| CC(C#N)(COc1cccc(C#N)c1C(F)(F)F)NC(=O)c1ccc(S(F)(F)(F)(F)F)cc1 (centres unmarked) [Example 36, N-{1-Cyano-2-[3-cyano-2-(trifluoromethyl)phenoxy]-1-methylethyl}-4-(pentafluorothio)benzamide] | 10 µg/mL | – |
| CC(C#N)(COc1cccc(C#N)c1Br)NC(=O)c1ccc(S(F)(F)(F)(F)F)cc1 (centres unmarked) [Example 37, N-[2-(2-Bromo-3-cyanophenoxy)-1-cyano-1-methylethyl]-4-(pentafluorothio)benzamide] | 3 µg/mL | – |
| CC(C#N)(COc1cc(Cl)ccc1Cl)NC(=O)c1ccc(S(F)(F)(F)(F)F)cc1 (centres unmarked) [Example 38, N-[1-Cyano-2-(2,5-dichlorophenoxy)-1-methylethyl]-4-(pentafluorothio)benzamide] | 10 µg/mL | – |
| CC(C#N)(COc1cccc(F)c1Cl)NC(=O)c1ccc(S(F)(F)(F)(F)F)cc1 (centres unmarked) [Example 39, N-[2-(2-Chloro-3-fluorophenoxy)-1-cyano-1-methylethyl]-4-(pentafluorothio)benzamide] | 30 µg/mL | – |
| CC(C#N)(COc1cccc(Br)c1C#N)NC(=O)c1ccc(S(F)(F)(F)(F)F)cc1 (centres unmarked) [Example 40, N-[2-(3-Bromo-2-cyanophenoxy)-1-cyano-1-methylethyl]-4-(pentafluorothio)benzamide] | 10 µg/mL | – |
| CC(C#N)(COc1ccc(Br)cc1C#N)NC(=O)c1ccc(S(F)(F)(F)(F)F)cc1 (centres unmarked) [Example 41, N-[2-(4-Bromo-2-cyanophenoxy)-1-cyano-1-methylethyl]-4-(pentafluorothio)benzamide] | 10 µg/mL | – |
| CC(C#N)(COc1cccc(Cl)c1Cl)NC(=O)c1ccc(S(F)(F)(F)(F)F)cc1 (centres unmarked) [Example 42, N-[1-Cyano-2-(2,3-dichlorophenoxy)-1-methylethyl]-4-(pentafluorothio)benzamide] | 30 µg/mL | – |
| CC(C#N)(COc1cc(C#N)ccc1C(N)=O)NC(=O)c1ccc(S(F)(F)(F)(F)F)cc1 (centres unmarked) [Example 45, 4-Cyano-2-(2-cyano-2-{[4-(pentafluorothio)benzoyl]amino}propoxy)benzamide] | – | H.c. (L3) MED (table of Examples 45-49): 30 µg/mL |
| CC(C#N)(COc1cc(C#N)ccc1C#N)NC(=O)c1ccc(S(F)(F)(F)(F)F)cc1 (centres unmarked) [Example 46, N-[1-Cyano-2-(2,5-dicyanophenoxy)-1-methylethyl]-4-(pentafluorothio)benzamide] | – | H.c. (L3) MED (table of Examples 45-49): 10 µg/mL |
| CC(C#N)(COc1ccc(C#N)cc1C#N)NC(=O)c1ccc(S(F)(F)(F)(F)F)cc1 (centres unmarked) [Example 47, N-[1-Cyano-2-(2,4-dicyanophenoxy)-1-methylethyl]-4-(pentafluorothio)benzamide] | – | H.c. (L3) MED (table of Examples 45-49): 10 µg/mL |
| CC(C#N)(COc1cc(F)cc(C#N)c1)NC(=O)c1ccc(S(F)(F)(F)(F)F)cc1 (centres unmarked) [Example 48, N-[1-Cyano-2-(3-cyano-5-fluorophenoxy)-1-methylethyl]-4-(pentafluorothio)benzamide] | – | H.c. (L3) MED (table of Examples 45-49): 3 µg/mL |
| CC(C#N)(COc1ccc(C(N)=O)cc1Cl)NC(=O)c1ccc(S(F)(F)(F)(F)F)cc1 (centres unmarked) [Example 49] | – | H.c. (L3) MED (table of Examples 45-49): 10 µg/mL |
| CC(C#N)(COc1c(F)cc(C#N)cc1F)NC(=O)c1ccc(S(F)(F)(F)(F)F)cc1 (centres unmarked) [Example 51, N-[1-Cyano-2-(4-cyano-2,6-difluorophenoxy)-1-methylethyl]-4-(pentafluorothio)benzamide] | – | H.c. (L3) MED (table of Examples 51-52): 3 µg/mL |
| CC(C#N)(COc1cccc(Cl)c1C(F)(F)F)NC(=O)c1ccc(S(F)(F)(F)(F)F)cc1 (centres unmarked) [Example 52, N-{2-[3-Chloro-2-(trifluoromethyl)phenoxy]-1-cyano-1-methylethyl}-4-(pentafluorothio)benzamide] | – | H.c. (L3) MED (table of Examples 51-52): 10 µg/mL |
| N-[2-(2-Chloro-4-fluorophenoxy)-1-cyano-1-methylethyl]-4-(pentafluorothio)benzamide [Example 13a] | 1 µg/mL | – |
| N-[2-(3-Chloro-4-fluorophenoxy)-1-cyano-1-methylethyl]-4-(pentafluorothio)benzamide [Example 13b] | 1 µg/mL | – |
| N-[2-(4-Chlorophenoxy)-1-cyano-1-methylethyl]-(pentafluorothio)benzamide [Example 15] | 30 µg/mL | – |
